Source: patent US11053213B2, “Pharmaceutical compounds” (ALMAC DISCOVERY LIMITED, priority 2016, dated 2021)

Target: USP19 (Homo sapiens (Human), UniProt O94966)
Assay: USP19 activity assay (fluorescence polarisation, Ubiquitin-Lys-TAMRA substrate)
Format: biochemical
Conditions: full-length USP19 2.5 nM, 30 min pre-incubation, Ub substrate 500 nM; average of at least two duplicate experiments
Experimental: Unless otherwise stated, all other reagents were purchased from Sigma. Enzymatic reactions were conducted in black flat bottom polystyrene 384-well plates (Nunc) and 30 μL total volume. […] Inhibitors were stored as 10 mM DMSO stocks in an inert environment (low humidity, dark, low oxygen, room temperature) using the Storage Pod System and serial dilutions were prepared in buffer just prior to the assay (from 200 μM to 2 pM, 8-18 data point curve). Following incubation at RT for 30 min, the enzymatic reactions were initiated by dispensing the Ub substrate (500 nM, 10 μL). FP was measured every 15 min over a period of 90 min (within the linear range of the assay) using a Synergy 4 plate reader (BioTek) exciting at 530 nm and measuring the amount of parallel and perpendicular light at 575 nm. The FP signal was subsequently normalised to the no compound control.

USP19, sequence (O94966 whole entry): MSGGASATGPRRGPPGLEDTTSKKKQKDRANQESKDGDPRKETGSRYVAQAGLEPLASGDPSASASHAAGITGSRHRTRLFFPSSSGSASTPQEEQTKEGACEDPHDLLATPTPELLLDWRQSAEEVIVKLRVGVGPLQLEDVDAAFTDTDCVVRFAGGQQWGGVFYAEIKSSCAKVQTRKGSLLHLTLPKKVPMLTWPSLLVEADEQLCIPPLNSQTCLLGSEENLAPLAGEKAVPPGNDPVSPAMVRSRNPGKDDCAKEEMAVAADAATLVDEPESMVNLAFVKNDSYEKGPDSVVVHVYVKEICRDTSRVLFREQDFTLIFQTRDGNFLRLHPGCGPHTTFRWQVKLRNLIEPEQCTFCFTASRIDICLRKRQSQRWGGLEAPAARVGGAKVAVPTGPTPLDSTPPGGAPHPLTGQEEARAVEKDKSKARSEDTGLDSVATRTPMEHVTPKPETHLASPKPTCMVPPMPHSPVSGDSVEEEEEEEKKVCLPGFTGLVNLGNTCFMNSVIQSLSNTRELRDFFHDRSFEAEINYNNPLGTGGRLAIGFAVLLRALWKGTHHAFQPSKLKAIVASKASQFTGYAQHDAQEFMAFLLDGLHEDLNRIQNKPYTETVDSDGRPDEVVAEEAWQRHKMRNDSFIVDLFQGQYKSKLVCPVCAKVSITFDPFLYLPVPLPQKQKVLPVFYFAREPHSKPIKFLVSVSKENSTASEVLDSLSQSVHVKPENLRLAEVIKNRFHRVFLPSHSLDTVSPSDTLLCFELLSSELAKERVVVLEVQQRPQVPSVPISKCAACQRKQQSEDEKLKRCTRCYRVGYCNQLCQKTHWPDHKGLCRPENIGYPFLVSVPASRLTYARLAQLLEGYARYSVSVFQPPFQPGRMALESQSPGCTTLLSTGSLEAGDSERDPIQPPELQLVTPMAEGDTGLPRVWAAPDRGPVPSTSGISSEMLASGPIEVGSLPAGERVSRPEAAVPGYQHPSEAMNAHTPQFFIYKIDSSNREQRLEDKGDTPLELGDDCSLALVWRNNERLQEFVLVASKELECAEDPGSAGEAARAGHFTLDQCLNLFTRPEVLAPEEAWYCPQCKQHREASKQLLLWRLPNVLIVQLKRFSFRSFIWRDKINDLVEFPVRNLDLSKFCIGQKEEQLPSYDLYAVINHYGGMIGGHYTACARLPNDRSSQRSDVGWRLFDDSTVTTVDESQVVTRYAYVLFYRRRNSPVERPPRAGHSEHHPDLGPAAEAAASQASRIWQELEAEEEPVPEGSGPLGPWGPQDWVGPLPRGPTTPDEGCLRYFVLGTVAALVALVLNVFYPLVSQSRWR

Row | Structure (SMILES) | IC50
1 | O=C(CCc1ccccc1)N1CCC(O)(Cn2cnc(-c3ccccc3F)cc2=O)CC1 [Example 2, 6-(2-Fluorophenyl)-3-((4-hydroxy-1-(3-phenylpropanoyl)piperidin-4-yl)methyl)pyrimidin-4(3H)-one] | 50 to 250 µM
2 | CC(C)N(C)C(=O)c1cn(CC2(O)CCN(C(=O)C[C@@H](C)c3ccccc3)CC2)c(=O)cc1-c1ccccc1 [Example 101, (R)-1-((4-Hydroxy-1-(3-phenylbutanoyl)piperidin-4-yl)methyl)-N-isopropyl-N-methyl-6-oxo-4-phenyl-1,6-dihydropyridine-3-carboxamide] | 5 to 50 µM
3 | C[C@H](CC(=O)N1CCC(O)(Cn2cnc(C3=CCCCC3)cc2=O)CC1)c1ccccc1 [Example 28, (R)-6-(Cyclohex-1-en-1-yl)-3-((4-hydroxy-1-(3-phenylbutanoyl)piperidin-4-yl)methyl)pyrimidin-4(3H)-one] | 50 to 250 µM
4 | O=C([C@@H]1C[C@@H]1c1ccccc1)N1CCC(O)(Cn2cnc(-c3ccccc3F)cc2=O)CC1 (racemic) [Example 41, rac-6-(2-Fluorophenyl)-3-((4-hydroxy-1-(cis-2-phenylcyclopropanecarbonyl)piperidin-4-yl)methyl)pyrimidin-4(3H)-one] | 5 to 50 µM
5 | C=CC[C@H](CC1CCCCC1)C(=O)N1CCC(O)(Cn2cnc(-c3ccccc3F)cc2=O)CC1 [Example 110, (R)-3-((1-(2-(Cyclohexylmethyl)pent-4-enoyl)-4-hydroxypiperidin-4-yl)methyl)-6-(2-fluorophenyl)pyrimidin-4(3H)-one] | 0.5 to 5 µM
6 | C[C@H](CC(=O)N1CCC(O)(Cn2cc(C(=O)N3CCCC3)c(-c3ccccc3)cc2=O)CC1)c1ccccc1 [Example 63, (R)-1-((4-Hydroxy-1-(3-phenylbutanoyl)piperidin-4-yl)methyl)-4-phenyl-5-(pyrrolidine-1-carbonyl)pyridin-2(1H)-one] | 0.5 to 5 µM
7 | CN(C)C(=O)c1cn(CC2(O)CCN(C(=O)COC3CCCCC3)CC23CCCC3)c(=O)cc1-c1ccccc1 (centres unmarked) [Example 194, 1-((7-(2-(Cyclohexyloxy)acetyl)-10-hydroxy-7-azaspiro[4.5]decan-10-yl)methyl)-N,N-dimethyl-6-oxo-4-phenyl-1,6-dihydropyridine-3-carboxamide] | 5 to 50 µM
8 | C[C@H](CC1CCCCC1)C(=O)N1CCC(O)(Cn2cc(C(=O)N(C)C)c(-c3ccccc3CO)cc2=O)C2(CCCC2)C1 (stereo partly drawn) [Example 151, 1-((7-((R)-3-Cyclohexyl-2-methylpropanoyl)-10-hydroxy-7-azaspiro[4.5]decan-10-yl)methyl)-4-(2-(hydroxymethyl)phenyl)-N,N-dimethyl-6-oxo-1,6-dihydropyridine-3-carboxamide] | 5 to 50 µM
9 | CN(C)C(=O)c1cn(CC2(O)CCN(C(=O)C[C@H](c3ccccc3)C(F)F)CC23CCCC3)c(=O)cc1-c1ccccc1 (stereo partly drawn) [Example 181, 1-((7-((R)-4,4-Difluoro-3-phenylbutanoyl)-10-hydroxy-7-azaspiro[4.5]decan-10-yl)methyl)-N,N-dimethyl-6-oxo-4-phenyl-1,6-dihydropyridine-3-carboxamide] | 0.5 to 5 µM
10 | C[C@H](CC1CCC1)C(=O)N1CC[C@@](O)(Cn2cc(C(=O)N(C)C)c(C3CC3)cc2=O)C2(CCCC2)C1 [Example 230, 1-(((S)-7-((R)-3-Cyclobutyl-2-methylpropanoyl)-10-hydroxy-7-azaspiro[4.5]decan-10-yl)methyl)-4-cyclopropyl-N,N-dimethyl-6-oxo-1,6-dihydropyridine-3-carboxamide] | 0.5 to 5 µM
11 | C[C@H](CC1CCCCC1)C(=O)N1CC[C@@](O)(Cn2cc(C(=O)N(C)C)c(C3CC3)cc2=O)C(C)(C)C1 [Example 220, 1-(((S)-1-((R)-3-Cyclohexyl-2-methylpropanoyl)-4-hydroxy-3,3-dimethylpiperidin-4-yl)methyl)-4-cyclopropyl-N,N-dimethyl-6-oxo-1,6-dihydropyridine-3-carboxamide] | 0.5 to 5 µM
12 | C[C@H](CC1CCCCC1)C(=O)N1C[C@H]2CC[C@@H](C1)C2(O)Cn1cnc(-c2ccccc2F)cc1=O (stereo partly drawn) [Example 31, 3-(((1R,5S)-3-((R)-3-Cyclohexyl-2-methylpropanoyl)-8-hydroxy-3-azabicyclo[3.2.1]octan-8-yl)methyl)-6-(2-fluorophenyl)pyrimidin-4(3H)-one] | 0.5 to 5 µM
13 | CN(C)C(=O)c1cn(CC2(O)CCN(C(=O)C[C@@H](c3ccccc3)C(F)F)CC23CCCC3)c(=O)cc1-c1ccccc1 (stereo partly drawn) [Example 180, 1-((7-((S)-4,4-Difluoro-3-phenylbutanoyl)-10-hydroxy-7-azaspiro[4.5]decan-10-yl)methyl)-N,N-dimethyl-6-oxo-4-phenyl-1,6-dihydropyridine-3-carboxamide] | 5 to 50 µM

Other lines, results leading:

Row | IC50 | Structure (SMILES)
14 | 0.5 to 5 µM | C[C@H](CC1CCCCC1)C(=O)N1CCC(O)(Cn2cc(-c3ncco3)c(-c3ccccc3)cc2=O)C(C)(C)C1 (stereo partly drawn) [Example 136, 1-((1-((R)-3-Cyclohexyl-2-methylpropanoyl)-4-hydroxy-3,3-dimethylpiperidin-4-yl)methyl)-5-(oxazol-2-yl)-4-phenylpyridin-2(1H)-one]
15 | 0.5 to 5 µM | C[C@H](CC1CCCCC1)C(=O)N1CCC(O)(Cn2cnc(-c3cccc(CN)c3)cc2=O)C(C)(C)C1 (stereo partly drawn) [Example 159, 6-(3-(Aminomethyl)phenyl)-3-((1-((R)-3-cyclohexyl-2-methylpropanoyl)-4-hydroxy-3,3-dimethylpiperidin-4-yl)methyl)pyrimidin-4(3H)-one]
16 | 0.5 to 5 µM | C[C@H](CC1CCCCC1)C(=O)N1CCC(O)(Cn2cc(C(=O)N(C)C)c(-c3ccccc3)cc2=O)C2(CCOCC2)C1 (stereo partly drawn) [Example 234, 1-((2-((R)-3-Cyclohexyl-2-methylpropanoyl)-5-hydroxy-9-oxa-2-azaspiro[5.5]undecan-5-yl)methyl)-N,N-dimethyl-6-oxo-4-phenyl-1,6-dihydropyridine-3-carboxamide]
17 | < 0.5 µM | C[C@H](CC1CCCCC1)C(=O)N1CC[C@@](O)(Cn2cc(C(=O)N3CCNCC3)c(-c3ccccc3F)cc2=O)C(C)(C)C1 [Example 206, 1-(((S)-1-((R)-3-Cyclohexyl-2-methylpropanoyl)-4-hydroxy-3,3-dimethylpiperidin-4-yl)methyl)-4-(2-fluorophenyl)-5-(piperazine-1-carbonyl)pyridin-2(1H)-one]
18 | 0.5 to 5 µM | C[C@H](CC1CCCCC1)C(=O)N1CCC(O)(Cn2cc(-c3cccc(CN)c3)c(-c3ccccc3F)cc2=O)CC1 [Example 52, (R)-5-(3-(Aminomethyl)phenyl)-1-((1-(3-cyclohexyl-2-methylpropanoyl)-4-hydroxypiperidin-4-yl)methyl)-4-(2-fluorophenyl)pyridin-2(1H)-one]
19 | < 0.5 µM | C[C@H](CC1CCCCC1)C(=O)N1CCC(O)(Cn2cc(C(=O)N3CCN(C)CC3)c(-c3ccccc3)cc2=O)C(C)(C)C1 (stereo partly drawn) [Example 170, 1-((1-((R)-3-Cyclohexyl-2-methylpropanoyl)-4-hydroxy-3,3-dimethylpiperidin-4-yl)methyl)-5-(4-methylpiperazine-1-carbonyl)-4-phenylpyridin-2(1H)-one]
20 | < 0.5 µM | O=C(c1cn(C[C@]2(O)CCN(C(=O)[C@H](CO)CC(F)(F)F)CC23CCCC3)c(=O)cc1-c1ccccc1)N1CCOCC1 [Example 248, 1-(((S)-10-Hydroxy-7-((S)-4,4,4-trifluoro-2-(hydroxymethyl)butanoyl)-7-azaspiro[4.5]decan-10-yl)methyl)-5-(morpholine-4-carbonyl)-4-phenylpyridin-2(1H)-one]
21 | 0.5 to 5 µM | C[C@H](CC1CCCCC1)C(=O)N1CCC(O)(Cn2cnc(-c3ccn[nH]3)cc2=O)C(C)(C)C1 (stereo partly drawn) [Example 133, 3-((1-((R)-3-Cyclohexyl-2-methylpropanoyl)-4-hydroxy-3,3-dimethylpiperidin-4-yl)methyl)-6-(1H-pyrazol-5-yl)pyrimidin-4(3H)-one]
22 | 0.5 to 5 µM | C[C@H](CC1CCCCC1)C(=O)N1CCC(O)(Cn2cc(C(=O)N(C)C)ccc2=O)C2(CCCC2)C1 (stereo partly drawn) [Example 127, 1-((7-((R)-3-Cyclohexyl-2-methylpropanoyl)-10-hydroxy-7-azaspiro[4.5]decan-10-yl)methyl)-N,N-dimethyl-6-oxo-1,6-dihydropyridine-3-carboxamide]
23 | 0.5 to 5 µM | C[C@H](CC(F)(F)F)C(=O)N1CC[C@@](O)(Cn2cc(C(=O)N3CCNCC3)c(-c3ccccc3F)cc2=O)C2(CCCC2)C1 [Example 225, 4-(2-Fluorophenyl)-1-(((S)-10-hydroxy-7-((R)-4,4,4-trifluoro-2-methylbutanoyl)-7-azaspiro[4.5]decan-10-yl)methyl)-5-(piperazine-1-carbonyl)pyridin-2(1H)-one]
24 | 0.5 to 5 µM | C[C@H](CC1CCCCC1)C(=O)N1CCC(O)(Cn2cnc(-c3ccnn3C)cc2=O)C(C)(C)C1 (stereo partly drawn) [Example 131, 3-((1-((R)-3-Cyclohexyl-2-methylpropanoyl)-4-hydroxy-3,3-dimethylpiperidin-4-yl)methyl)-6-(1-methyl-1H-pyrazol-5-yl)pyrimidin-4(3H)-one]
25 | 0.5 to 5 µM | CN(C)C(=O)c1cn(CC2(O)CCN(C(=O)c3c[nH]nc3C3CCCCC3)CC23CCCC3)c(=O)cc1-c1ccccc1 (centres unmarked) [Example 189, 1-((7-(3-Cyclohexyl-1H-pyrazole-4-carbonyl)-10-hydroxy-7-azaspiro[4.5]decan-10-yl)methyl)-N,N-dimethyl-6-oxo-4-phenyl-1,6-dihydropyridine-3-carboxamide]
26 | 0.5 to 5 µM | CC(C)N(C)C(=O)c1cn(CC2(O)CCN(C(=O)[C@H](C)CC3CCCCC3)CC2)c(=O)cc1-c1ccccc1 [Example 87, (R)-1-((1-(3-Cyclohexyl-2-methylpropanoyl)-4-hydroxypiperidin-4-yl)methyl)-N-isopropyl-N-methyl-6-oxo-4-phenyl-1,6-dihydropyridine-3-carboxamide]
